Each block holds one compound with its values, some of them ahead of it.
Tests used:
[1] = target: Human MER (residues 528-999) (Homo sapiens (Human), UniProt Q12866); test: Human Mer kinase assay, HTRF KinEase (Example C-2); type: biochemical; conditions: protocol of Example C-2
Method in brief: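 Recombinant MER 528-999 (1 ng/well) in buffer with 5 mM MgCl2 and 1 mM DTT was reacted with biotinylated peptide and ATP at Km (40 μM) for 60 min at room temperature. EDTA stop with SA-XL665 and Eu3+ TK antibody, then 665/620 nm HTRF read; IC50 from 4-parameter fit.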

[2] = target: Human MET (residues 956-1390) (Homo sapiens (Human), UniProt P08581); test: Human Met kinase assay, HTRF KinEase (Example D-2); type: biochemical; conditions: protocol of Example D-2; read-out: c-Met IC50
Sequence of Human MET (residues 956-1390) (P08581 956-1390): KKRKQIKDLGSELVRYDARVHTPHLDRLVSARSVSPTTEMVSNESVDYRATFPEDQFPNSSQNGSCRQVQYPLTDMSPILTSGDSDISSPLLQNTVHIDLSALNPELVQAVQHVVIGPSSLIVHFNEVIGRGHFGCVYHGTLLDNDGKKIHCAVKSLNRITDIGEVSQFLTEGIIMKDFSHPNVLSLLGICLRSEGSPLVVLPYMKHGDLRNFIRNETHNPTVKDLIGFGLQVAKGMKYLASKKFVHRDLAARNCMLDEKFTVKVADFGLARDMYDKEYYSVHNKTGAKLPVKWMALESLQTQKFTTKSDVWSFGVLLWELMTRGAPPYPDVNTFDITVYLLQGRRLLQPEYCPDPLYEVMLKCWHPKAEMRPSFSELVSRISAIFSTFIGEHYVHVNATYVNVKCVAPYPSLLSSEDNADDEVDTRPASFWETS
Method in brief: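 MET kinase domain (956-1390), 0.1 ng/well, in buffer with 5 mM MgCl2, 1 mM DTT and 1 mM MnCl2, phosphorylated a biotinylated peptide at ATP Km for 40 min at RT; 10 concentrations, 3% DMSO final. EDTA-stopped HTRF read after 60 min; IC50 from a 4-parameter logistic fit.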

[3] = target: Met (phospho-Met, HGF-stimulated PC-3 prostate cancer cells) (Homo sapiens (Human), UniProt P08581); test: Met autophosphorylation ELISA in PC-3 cells (Example F); type: cell-based; conditions: cellular activity; Met autophosphorylation ELISA in PC-3 cells; read-out: c-Met IC50
Sequence of Met (phospho-Met, HGF-stimulated PC-3 prostate cancer cells) (P08581 25-1390): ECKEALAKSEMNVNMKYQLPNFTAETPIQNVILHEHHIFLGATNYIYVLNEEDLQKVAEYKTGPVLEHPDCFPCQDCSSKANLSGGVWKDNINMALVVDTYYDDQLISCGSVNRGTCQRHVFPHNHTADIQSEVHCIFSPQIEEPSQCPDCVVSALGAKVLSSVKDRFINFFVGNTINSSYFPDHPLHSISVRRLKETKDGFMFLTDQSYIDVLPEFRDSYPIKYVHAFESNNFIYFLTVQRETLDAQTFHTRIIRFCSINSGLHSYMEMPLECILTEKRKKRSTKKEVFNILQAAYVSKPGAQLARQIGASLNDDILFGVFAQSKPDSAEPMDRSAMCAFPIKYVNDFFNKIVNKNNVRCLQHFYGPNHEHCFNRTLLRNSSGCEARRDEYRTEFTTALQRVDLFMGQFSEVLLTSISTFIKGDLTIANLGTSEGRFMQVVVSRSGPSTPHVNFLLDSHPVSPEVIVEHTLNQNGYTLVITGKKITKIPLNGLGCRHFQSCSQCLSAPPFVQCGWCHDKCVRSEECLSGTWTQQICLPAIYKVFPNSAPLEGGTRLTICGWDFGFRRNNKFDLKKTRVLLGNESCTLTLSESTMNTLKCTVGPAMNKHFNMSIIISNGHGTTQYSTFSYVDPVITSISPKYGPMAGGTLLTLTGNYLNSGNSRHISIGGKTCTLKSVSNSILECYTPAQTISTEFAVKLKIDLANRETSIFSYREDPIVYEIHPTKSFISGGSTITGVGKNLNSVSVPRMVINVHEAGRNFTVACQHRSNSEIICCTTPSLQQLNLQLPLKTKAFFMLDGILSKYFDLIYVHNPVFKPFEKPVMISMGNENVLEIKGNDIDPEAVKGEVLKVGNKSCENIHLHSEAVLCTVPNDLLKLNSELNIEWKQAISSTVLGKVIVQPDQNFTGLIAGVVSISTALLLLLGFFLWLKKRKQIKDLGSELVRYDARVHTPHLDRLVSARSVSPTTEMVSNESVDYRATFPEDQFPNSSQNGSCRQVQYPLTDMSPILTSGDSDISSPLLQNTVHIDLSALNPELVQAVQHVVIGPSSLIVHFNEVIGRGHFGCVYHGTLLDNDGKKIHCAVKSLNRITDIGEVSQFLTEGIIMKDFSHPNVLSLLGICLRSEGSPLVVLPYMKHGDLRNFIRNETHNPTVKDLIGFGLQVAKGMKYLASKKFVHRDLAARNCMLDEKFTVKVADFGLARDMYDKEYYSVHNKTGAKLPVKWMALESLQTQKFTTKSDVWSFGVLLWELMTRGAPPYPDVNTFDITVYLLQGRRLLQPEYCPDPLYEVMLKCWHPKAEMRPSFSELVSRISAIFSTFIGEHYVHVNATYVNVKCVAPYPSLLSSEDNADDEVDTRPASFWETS
Method in brief: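 Compounds were tested on HGF-stimulated PC-3 cells. After 24 h culture and 3 h serum starvation, cells got compound for 1 h and 100 ng/mL HGF for 10 min, and Met tyrosine phosphorylation was measured by ELISA.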

[4] = target: KDR (phospho-KDR, VEGF165-stimulated HUVEC cells) (Homo sapiens (Human), UniProt P35968); test: KDR autophosphorylation ELISA in HUVEC cells (Example G); type: cell-based; conditions: cellular activity; KDR autophosphorylation ELISA in HUVEC cells
Sequence of KDR (phospho-KDR, VEGF165-stimulated HUVEC cells) (P35968 20-1356): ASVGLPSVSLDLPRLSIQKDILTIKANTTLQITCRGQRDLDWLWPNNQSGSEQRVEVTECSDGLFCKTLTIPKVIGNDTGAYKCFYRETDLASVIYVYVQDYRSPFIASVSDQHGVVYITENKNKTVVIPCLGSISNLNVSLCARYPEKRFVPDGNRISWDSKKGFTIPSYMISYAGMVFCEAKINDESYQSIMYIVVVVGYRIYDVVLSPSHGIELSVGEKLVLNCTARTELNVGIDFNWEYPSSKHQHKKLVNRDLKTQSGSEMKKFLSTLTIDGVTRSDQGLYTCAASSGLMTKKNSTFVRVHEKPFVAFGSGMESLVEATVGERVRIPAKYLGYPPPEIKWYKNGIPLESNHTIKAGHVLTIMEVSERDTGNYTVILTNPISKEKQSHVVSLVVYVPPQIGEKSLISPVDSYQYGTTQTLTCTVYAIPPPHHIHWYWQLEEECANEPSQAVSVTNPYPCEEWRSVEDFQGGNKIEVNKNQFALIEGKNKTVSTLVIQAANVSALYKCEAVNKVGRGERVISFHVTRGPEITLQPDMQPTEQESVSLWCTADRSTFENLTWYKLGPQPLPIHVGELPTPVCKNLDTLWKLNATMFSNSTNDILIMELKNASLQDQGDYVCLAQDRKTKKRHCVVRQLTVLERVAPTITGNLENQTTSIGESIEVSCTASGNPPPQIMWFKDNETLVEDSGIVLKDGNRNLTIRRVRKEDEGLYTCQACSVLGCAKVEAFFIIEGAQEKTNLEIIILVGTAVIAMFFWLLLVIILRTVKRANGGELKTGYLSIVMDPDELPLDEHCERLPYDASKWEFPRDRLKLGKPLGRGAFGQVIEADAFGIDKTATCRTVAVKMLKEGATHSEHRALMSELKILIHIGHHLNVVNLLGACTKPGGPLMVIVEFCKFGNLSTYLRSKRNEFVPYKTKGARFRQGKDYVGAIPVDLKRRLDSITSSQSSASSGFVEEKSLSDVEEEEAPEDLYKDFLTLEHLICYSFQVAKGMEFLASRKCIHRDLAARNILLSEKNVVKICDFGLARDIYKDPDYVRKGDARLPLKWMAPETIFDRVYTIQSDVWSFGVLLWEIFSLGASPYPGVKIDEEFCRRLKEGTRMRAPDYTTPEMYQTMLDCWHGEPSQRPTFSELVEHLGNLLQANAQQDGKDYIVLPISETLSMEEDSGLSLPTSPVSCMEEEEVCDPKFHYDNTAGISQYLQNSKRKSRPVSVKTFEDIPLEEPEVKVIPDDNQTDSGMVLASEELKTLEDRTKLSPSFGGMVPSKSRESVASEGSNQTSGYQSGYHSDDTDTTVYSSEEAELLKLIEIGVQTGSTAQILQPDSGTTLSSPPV
Method in brief: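 Inhibition of VEGF165-driven KDR autophosphorylation is measured in primary human umbilical vein endothelial cells after 24 h serum deprivation. Compound preincubation lasts 1 h before a 5-minute challenge with 100 ng/mL ligand, and phosphorylated receptor is then measured by ELISA in the lysates.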

Sequence of Human MER (residues 528-999) (Q12866 528-999): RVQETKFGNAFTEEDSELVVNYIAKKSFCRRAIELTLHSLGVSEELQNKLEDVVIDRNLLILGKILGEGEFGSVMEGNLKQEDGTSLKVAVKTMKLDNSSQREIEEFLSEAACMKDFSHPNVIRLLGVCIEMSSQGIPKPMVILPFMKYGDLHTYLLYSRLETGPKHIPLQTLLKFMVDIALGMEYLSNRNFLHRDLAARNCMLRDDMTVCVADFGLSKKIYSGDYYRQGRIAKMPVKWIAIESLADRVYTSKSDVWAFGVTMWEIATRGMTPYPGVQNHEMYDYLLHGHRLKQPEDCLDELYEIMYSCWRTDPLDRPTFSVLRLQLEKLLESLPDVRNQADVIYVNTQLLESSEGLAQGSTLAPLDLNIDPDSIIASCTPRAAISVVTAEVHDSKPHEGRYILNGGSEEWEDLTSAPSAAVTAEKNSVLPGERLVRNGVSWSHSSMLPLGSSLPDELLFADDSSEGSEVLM

Compound: COc1cnc2c(Oc3ccc(NC(=O)c4cc(C)nn(-c5ccc(F)cc5)c4=O)cc3)ccnc2c1 [Compound 522, 2-(4-fluorophenyl)-N-[4-[(7-methoxy-1,5-naphthyridin-4-yl)oxy]phenyl]-6-methyl-3-oxopyridazine-4-carboxamide]
IC50 [1]: 100 to 300 nM
IC50 [2]: 100 to 300 nM
IC50 [3]: < 100 nM
IC50 [4]: > 300 nM

Compound: COCc1nc(C)c(-c2ccc(F)cc2)c(O)c1C(=O)Nc1ccc(Oc2ccnc3ccc(OC)cc23)c(F)c1 [Compound 525, N-[3-fluoro-4-(6-methoxyquinolin-4-yl)oxyphenyl]-5-(4-fluorophenyl)-4-hydroxy-2-(methoxymethyl)-6-methylpyridine-3-carboxamide]
IC50 [1]: < 100 nM
IC50 [2]: 100 to 300 nM
IC50 [3]: < 100 nM
IC50 [4]: < 100 nM

Compound: CCc1nc(C)c(-c2ccc(F)cc2C)c(O)c1C(=O)Nc1ccc(Oc2ccnc3ccc(OC)nc23)cc1 [Compound 526, 2-ethyl-5-(4-fluoro-2-methylphenyl)-4-hydroxy-N-[4-[(6-methoxy-1,5-naphthyridin-4-yl)oxy]phenyl]-6-methylpyridine-3-carboxamide]
IC50 [1]: < 100 nM
IC50 [2]: 100 to 300 nM
IC50 [3]: < 100 nM
IC50 [4]: < 100 nM

Compound: COc1cnc2c(Oc3ccc(NC(=O)c4ccnn(-c5ccc(F)cc5C)c4=O)cc3)ccnc2c1 [Compound 530, 2-(4-fluoro-2-methylphenyl)-N-[4-[(7-methoxy-1,5-naphthyridin-4-yl)oxy]phenyl]-3-oxopyridazine-4-carboxamide]
IC50 [1]: 100 to 300 nM
IC50 [2]: 100 to 300 nM
IC50 [3]: < 100 nM
IC50 [4]: < 100 nM

Compound: COc1cc2nccc(Oc3ccc(NC(=O)c4cnc(SC(C)C)n(-c5ccc(F)cc5)c4=O)cc3)c2cc1OC [Compound 539, N-[4-(6,7-dimethoxyquinolin-4-yl)oxyphenyl]-1-(4-fluorophenyl)-6-oxo-2-propan-2-ylsulfanylpyrimidine-5-carboxamide]
IC50 [1]: < 100 nM
IC50 [2]: 100 to 300 nM
IC50 [3]: < 100 nM
IC50 [4]: > 300 nM

Compound: COc1cc2nccc(Oc3ccc(NC(=O)c4cnc(C)c(-c5ccc(F)cc5)c4O)cc3F)c2nc1C [Compound 541, N-[3-fluoro-4-[(7-methoxy-6-methyl-1,5-naphthyridin-4-yl)oxy]phenyl]-5-(4-fluorophenyl)-4-hydroxy-6-methylpyridine-3-carboxamide]
IC50 [1]: < 100 nM
IC50 [2]: < 100 nM
IC50 [3]: < 100 nM
IC50 [4]: < 100 nM

Compound: COc1cc2nccc(Oc3cc(F)c(NC(=O)c4cnc(C)c(-c5ccc(F)cc5)c4O)cc3F)c2nc1C [Compound 542, N-[2,5-difluoro-4-[(7-methoxy-6-methyl-1,5-naphthyridin-4-yl)oxy]phenyl]-5-(4-fluorophenyl)-4-hydroxy-6-methylpyridine-3-carboxamide]
IC50 [1]: < 100 nM
IC50 [2]: < 100 nM
IC50 [3]: < 100 nM
IC50 [4]: < 100 nM

Compound: CNc1nccc2c(Oc3ccc(NC(=O)c4cnc(C)n(-c5ccc(F)cc5)c4=O)cc3)ccnc12 [Compound 543, 1-(4-fluorophenyl)-2-methyl-N-[4-[[8-(methylamino)-1,7-naphthyridin-4-yl)oxy]phenyl]-6-oxopyrimidine-5-carboxamide]
IC50 [1]: < 100 nM
IC50 [2]: 100 to 300 nM
IC50 [3]: < 100 nM
IC50 [4]: 100 to 300 nM

Compound: COc1cc2nccc(Oc3ccc(NC(=O)c4cnc(COC(C)=O)c(-c5ccc(F)cc5)c4O)cc3F)c2nc1OC [Compound 544, [5-[[4-[(6,7-dimethoxy-1,5-naphthyridin-4-yl)oxy]-3-fluorophenyl]carbamoyl]-3-(4-fluorophenyl)-4-hydroxypyridin-2-yl]methyl acetate]
IC50 [1]: < 100 nM
IC50 [2]: < 100 nM
IC50 [3]: < 100 nM
IC50 [4]: < 100 nM

Compound: Cc1ccc(C(=O)Nc2ccc(Oc3ccnc4cc(O)cnc34)c(F)c2)c(=O)n1-c1ccc(F)cc1 [Compound 551, N-[3-Fluoro-4-[(7-hydroxy-1,5-naphthyridin-4-yl)oxy]phenyl]-1-(4-fluorophenyl)-6-methyl-2-oxopyridine-3-carboxamide]
IC50 [1]: < 100 nM
IC50 [2]: < 100 nM
IC50 [3]: < 100 nM
IC50 [4]: < 100 nM

Compound: COCCOc1cnc2c(Oc3ccc(NC(=O)c4ccc(C)n(-c5ccc(F)cc5)c4=O)cc3F)ccnc2c1 [Compound 552, N-[3-Fluoro-4-[[7-(2-methoxyethoxy)-1,5-naphthyridin-4-yl]oxy]phenyl]-1-(4-fluorophenyl)-6-methyl-2-oxopyridine-3-carboxamide]
IC50 [1]: < 100 nM
IC50 [2]: < 100 nM
IC50 [3]: < 100 nM
IC50 [4]: < 100 nM

Compound: COc1cc2nccc(Oc3ccc(NC(=O)c4cn(C)c(C(=O)O)c(-c5ccc(F)cc5)c4=O)cc3F)c2nc1OC [Compound 553, 5-[[4-[(6,7-Dimethoxy-1,5-naphthyridin-4-yl)oxy]-3-fluorophenyl]carbamoyl]-3-(4-fluorophenyl)-1-methyl-4-oxopyridine-2-carboxylic acid]
IC50 [1]: < 100 nM
IC50 [2]: < 100 nM
IC50 [3]: < 100 nM
IC50 [4]: > 300 nM

Compound: Cc1nc(C)c(-c2ccc(F)cc2)c(O)c1C(=O)Nc1ccc(Oc2ccnc3cc(O)cnc23)c(F)c1 [Compound 554, N-[3-Fluoro-4-[(7-hydroxy-1,5-naphthyridin-4-yl)oxy]phenyl]-5-(4-fluorophenyl)-4-hydroxy-2,6-dimethylpyridine-3-carboxamide]
IC50 [1]: < 100 nM
IC50 [2]: < 100 nM
IC50 [3]: < 100 nM
IC50 [4]: < 100 nM

Compound: COCCOc1cnc2c(Oc3ccc(NC(=O)c4c(C)nc(C)c(-c5ccc(F)cc5)c4O)cc3F)ccnc2c1 [Compound 555, N-[3-Fluoro-4-[[7-(2-methoxyethoxy)-1,5-naphthyridin-4-yl]oxy]phenyl]-5-(4-fluorophenyl)-4-hydroxy-2,6-dimethylpyridine-3-carboxamide]
IC50 [1]: < 100 nM
IC50 [2]: < 100 nM
IC50 [3]: < 100 nM
IC50 [4]: < 100 nM

Results, then the compound that gave them:

IC50 [1]: < 100 nM
IC50 [2]: < 100 nM
IC50 [3]: < 100 nM
IC50 [4]: < 100 nM
Compound: COc1cc2nccc(Oc3ccc(NC(=O)c4nn(C)c(C)c(-c5ccc(F)cc5C)c4=O)cc3)c2nc1OC [Compound 517, N-[4-[(6,7-dimethoxy-1,5-naphthyridin-4-yl)oxy]phenyl]-5-(4-fluoro-2-methylphenyl)-1,6-dimethyl-4-oxopyridazine-3-carboxamide]

IC50 [1]: < 100 nM
IC50 [2]: < 100 nM
IC50 [3]: < 100 nM
IC50 [4]: < 100 nM
Compound: COc1cc2nccc(Oc3ccc(NC(=O)c4c(C)nc(C)c(-c5ccc(F)cc5CO)c4O)cc3F)c2nc1OC [Compound 518, N-[4-[(6,7-dimethoxy-1,5-naphthyridin-4-yl)oxy]-3-fluorophenyl]-5-[4-fluoro-2-(hydroxymethyl]phenyl]-4-hydroxy-2,6-dimethylpyridine-3-carboxamide]

IC50 [1]: < 100 nM
IC50 [2]: 100 to 300 nM
IC50 [3]: < 100 nM
IC50 [4]: < 100 nM
Compound: COc1cc2nccc(Oc3ccc(NC(=O)c4cc(C)nn(-c5ccc(F)cc5)c4=O)cc3F)c2nc1OC [Compound 519, N-[4-[(6,7-dimethoxy-1,5-naphthyridin-4-yl)oxy]-3-fluorophenyl]-2-(4-fluorophenyl)-6-methyl-3-oxopyridazine-4-carboxamide]

IC50 [1]: < 100 nM
IC50 [2]: < 100 nM
IC50 [3]: < 100 nM
IC50 [4]: < 100 nM
Compound: COc1cc2nccc(Oc3ccc(NC(=O)c4cc(C)nn(-c5ccc(F)cc5)c4=O)cc3)c2nc1OC [Compound 520, N-[4-[(6,7-dimethoxy-1,5-naphthyridin-4-yl)oxy]phenyl]-2-(4-fluorophenyl)-6-methyl-3-oxopyridazine-4-carboxamide]

IC50 [1]: < 100 nM
IC50 [2]: < 100 nM
IC50 [3]: 100 to 300 nM
IC50 [4]: > 300 nM
Compound: COc1cnc2c(Oc3ccc(NC(=O)c4cc(C)nn(-c5ccc(F)cc5)c4=O)cc3F)ccnc2c1 [Compound 521, N-[3-fluoro-4-[(7-methoxy-1,5-naphthyridin-4-yl)oxy]phenyl]-2-(4-fluorophenyl)-6-methyl-3-oxopyridazine-4-carboxamide]

IC50 [1]: < 100 nM
IC50 [2]: < 100 nM
IC50 [3]: < 100 nM
IC50 [4]: > 300 nM
Compound: COc1cc2nccc(Oc3ccc(NC(=O)c4c(C)n(C)c(C)c(-c5ccc(F)cc5)c4=O)cc3)c2nc1OC [Compound 523, N-[4-[(6,7-dimethoxy-1,5-naphthyridin-4-yl)oxy]phenyl]-5-(4-fluorophenyl)-1,2,6-trimethyl-4-oxopyridine-3-carboxamide]

IC50 [1]: < 100 nM
IC50 [2]: 100 to 300 nM
IC50 [3]: < 100 nM
IC50 [4]: 100 to 300 nM
Compound: COc1cc2nccc(Oc3ccc(NC(=O)c4c(C)c(C)nn(-c5ccc(F)cc5)c4=O)cc3F)c2nc1OC [Compound 524, N-[4-[(6,7-dimethoxy-1,5-naphthyridin-4-yl)oxy]-3-fluorophenyl]-2-(4-fluorophenyl)-5,6-dimethyl-3-oxopyridazine-4-carboxamide]

— patent US12371428B2 (Exelixis, Inc., priority 2019, dated 2025)
